Test [1] addresses T1, PRMT1 (Homo sapiens, UniProt Q99873). The experiment in a line: PRMT1 RKO Cellular Target Engagement Assay (In-Cell Western, asymmetric di-methyl arginine). It is filed as cell-based. Conditions: RKO cells, 48 hr compound incubation; read-out: RKO IC50 (PRMT-1 Target Engagement). As for the experimental part: RKO cells were routinely maintained in EMEM media (ATCC, Catalog #30-2003) supplemented with 10% fetal bovine serum (Sigma, Catalog #F2442) using a humidified incubator (37° C., 5% CO2, and ambient O2).
In preparation for the In-Cell Western assay, cells were harvested and resuspended in EMEM media supplemented with 10% fetal bovine serum. Cells were seeded onto a 384 well, black, clear bottom, Poly-D-Lysine coated tissue culture plate (Greiner, Catalog #781946) at a density of 1,000 cells/well in a volume of 40 μL. The culture plate was incubated for 24 hr at 37° C. with 5% CO2 and ambient O2. Stock solutions of the test compounds were prepared in 100% DMSO (Sigma, Catalog #D2650) and serially diluted 1:3 using 100% DMSO. Compounds were additionally diluted 1:40 in culture medium, and 10 μL/well was transferred to the tissue culture plate. Following the compound addition the microplate was incubated at 37° C. for 48 hr.
The media was removed, the plate was washed with 1× PBS (Fisher Bioreagents, Catalog #BP399-20), and cells were fixed for 10 min using 30 μL/well of 4% paraformaldehyde (Electron Microscopy Sciences, Catalog #15710). The paraformaldehyde was removed, the plate was again washed with 1× PBS, and cells were permeabilized for 15 min using 30 μL/well of 1× PBS containing 0.5% Triton-X 100 (Sigma, Catalog #1001748095). The permeabilization buffer was removed, the plate was washed with 1× PBST (Boston BioProducts, Catalog #IBB-171X), and 50 μL/well of blocking buffer (LI-COR, Catalog #927-40000) was added followed by a 1 hour incubation at room temperature. The blocking buffer was removed, and 20 μL/well of anti-asymmetric di-methyl arginine antibody (Cell Signaling, Catalog #13522S) diluted 1:1000 in LI-COR blocking buffer was added to the plate and incubated overnight, in the dark at 4° C.
The primary antibody was then removed, and the plate was washed three times with 1× PBST. 20 μL/well of CellTag (LI-COR, Catalog #926-41090) and IRDye 800CW goat anti-rabbit IgG antibody (LI-COR, Catalog #926-32211), each diluted 1:500 in LI-COR blocking buffer supplemented with 0.1% Tween-20 (Thermo Scientific, Catalog #85114), were added to the plate. The plate was then incubated in the dark, at room temperature for 1 hour followed by three washes with 1× PBST and one wash with H2O. The IRDye secondary antibody signal (800 channel) and the CellTag signal (700 channel) were measured using a Licor Odyssey Imager, and the 800 channel signal was then normalized to the 700 channel signal. IC50 values were calculated using a four-parameter logistic curve fit using Genedata Screener software.

The test system of test [2] is DOHH2 cells. The experiment in a line: DOHH2 Long Term Phenotypic Assay (7 days, Cell Titer-Glo viability). The following applies: Homo sapiens, DOHH-2, 168 h, Cell Titer-Glo 2.0. It is filed as cell-based. The procedure:
DOHH2 cells were kindly provided by Michael Green (MDACC). The cells were routinely maintained in RPMI-1640 Medium (ATCC, Catalog #30-2001) supplemented with 10% fetal bovine serum (Sigma, Catalog #F2442), 100 units/mL penicillin and 100 μg/mL streptomycin (Gibco, Catalog #15140-122) in a humidified incubator (37° C., 5% CO2). Cells were seeded onto a white, CulturPlate-384 (Perkin Elmer, catalog #6007680) at a density of 250 cells per well in a volume of 50 μL. Stock solutions of the test compounds were prepared in 100% DMSO (Sigma, Catalog #D2650) and serially diluted 1:3 using 100% DMSO. Compounds were additionally diluted 1:33 in culture medium, and 10 μL/well was transferred to the tissue culture plate. Following the compound addition, the plate was incubated at 37° C. and 5% CO2 for 7 days. Cells were then mixed and a 30 μL volume was removed. Viability was assessed by a 30 μL addition of Cell Titer-Glo 2.0 (Promega, catalog #G9243). The plate was then shaken on an orbital shaker at 300 RPM for 10 minutes at room temperature, in the dark. Luminescence was measured using a PerkinElmer Envision™ plate reader. IC50 values were calculated using a four-parameter logistic curve fit using Genedata Screener software.

For test [3], the target named is T1, PRMT1. The experiment in a line: PRMT1 Enzymatic Assay (LANCE TR-FRET, methylation of histone H4 at Arg3). Format: biochemical. Further details: purchased SignalChem P365-380G. The following applies: PRMT1 1.5 nM, SAM 1 μM, biotinylated histone H4 (1-21) 25 nM; read-out: PRMT-1 IC50. The procedure: In order to measure PRMT1 enzymatic activity the LANCE TR-FRET assay from PerkinElmer was used to follow the methylation of histone H4 at Arg3 using S-adenosyl-L-methionine (SAM) as the methyl group donor.
This enzymatic assay was performed in a 384 well, white, low volume plate (PerkinElmer, Catalog 6008289) with assay buffer consisting of 50 mM Hepes (pH 8) (Teknova, Catalog #H1090), 1 mM TCEP (Sigma, Catalog #C4706), and 0.003% Tween-20 (Thermo, Catalog #85114). Stock solutions of the test compounds were prepared in 100% DMSO (Sigma, Catalog #D2650) and serially diluted 1:3 using 100% DMSO. Compounds were additionally diluted 1:40 in assay buffer, and 2 uL/well were transferred to the assay plate. 4 uL/well (final concentration 1.5 nM) of PRMT1 protein (SignalChem, Catalog #P365-380G) diluted in assay buffer was added to the assay plate followed by a 15 min preincubation at room temperature. 4 uL/well of SAM (Sigma, Catalog #A7007) and biotinylated histone H4 (1-21) (AnaSpec, Catalog #62555) (final concentrations 1 μM and 25 nM, respectively) diluted in assay buffer were then added to the assay plate followed by a 1 hour reaction time. Final concentrations of PRMT1, SAM, and histone H4 (1-21) refer to a […].
Detection of methylated histone H4 (H4R^3me) was achieved by combining LANCE Ultra Europium-anti-H4R^3me antibody (PerkinElmer, Catalog #TRF04-14), LANCE Ultra ULight-anti-streptavidin antibody (PerkinElmer, Catalog #TRF0102), and sinefungin (Sigma, Catalog #S8559) (final concentrations 2 nM, 50 nM, and 100 μM respectively) in 1× LANCE detection buffer (PerkinElmer, Catalog #CR97-100) and adding L/well of the detection solution to the assay plate. Detection reagents were allowed to react for 1 hour at room temperature. Final concentrations in the detection solution refer to a L volume. The europium fluorescence signal and the ULight TR-FRET signal were measured using a BioTek Synergy Neo plate reader: excitation at 330 nm, emission at 620 nm and 665 nm respectively, and the ratio of the two signals (665 nm/620 nm) was used for curve fitting. IC50 values were calculated using a four-parameter logistic curve fit using Genedata Screener software.
On the technique in general: TR-FRET usually uses a lanthanide donor and a delayed reading to cut background.

pIC50: −log10 of the molar value.

T1 sequence (Q99873 whole entry): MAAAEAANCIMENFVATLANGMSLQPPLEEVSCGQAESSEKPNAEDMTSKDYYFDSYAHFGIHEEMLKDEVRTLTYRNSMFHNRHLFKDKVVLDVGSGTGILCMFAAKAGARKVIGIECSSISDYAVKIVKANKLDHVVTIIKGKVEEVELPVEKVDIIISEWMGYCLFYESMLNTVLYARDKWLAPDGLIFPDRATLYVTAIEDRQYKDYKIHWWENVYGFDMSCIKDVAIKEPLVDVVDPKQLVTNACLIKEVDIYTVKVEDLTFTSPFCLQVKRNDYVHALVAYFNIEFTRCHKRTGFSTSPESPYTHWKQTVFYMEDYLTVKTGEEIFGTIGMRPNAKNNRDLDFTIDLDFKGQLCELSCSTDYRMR

What is called pIC50 is −log10 of the IC50, conventionally taken in molar units. `CCOC12CC(C(=O)N3CCn4nc(CN(C)CCNC)c(C5CCC(COC)(COC)CC5)c4C3)(C1)C2` [Example 26, (3-(4,4-bis(methoxymethyl)-cyclohexyl)-2-((methyl(2-(methylamino)ethyl)amino)-methyl)-6,7-dihydropyrazolo-[1,5-a]pyrazin-5(4H)-yl)(3-ethoxybicyclo[1.1.1]pentan-1-yl)methanone]: the results for the pIC50 in test [1], in test [2] and in test [3] were 5.62, 6.07 and 6.36, respectively.
Taken in the same sequence, the figures for `CNCCN(C)Cc1nn2c(c1C1CCC(COC)(COC)CC1)CN(C(=O)C1CCCCC1)CC2` [Example 51, (3-(4,4-bis(methoxymethyl)-cyclohexyl)-2-((methyl(2-(methylamino)ethyl)amino)-methyl)-6,7-dihydropyrazolo-[1,5-a]pyrazin-5(4H)-yl)-(cyclohexyl)methanone] were 5.00, 7.12 and 7.24.
For `CNCCN(C)Cc1nn2c(c1C1CCC(COC)(COC)CC1)CN(C(=O)CC#N)CC2` [Example 52, 3-(3-(4,4-bis(methoxy-methyl)cyclohexyl)-2-((methyl(2-(methylamino)-ethyl)amino)methyl)-6,7-dihydropyrazolo[1,5-a]-pyrazin-5(4H)-yl)-3-oxopropanenitrile], in that order: 6.79, 6.29 and 7.15.
For `CNCCN(C)Cc1nn2c(c1C1CCC(COC)(COC)CC1)CN(C(=O)C(C)(C)COC)CC2` [Example 54, 1-(3-(4,4-bis(methoxy-methyl)cyclohexyl)-2-((methyl(2-(methylamino)-ethyl)amino)methyl)-6,7-dihydropyrazolo[1,5-a]-pyrazin-5(4H)-yl)-3-methoxy-2,2-dimethylpropan-1-one], in that order: 6.69, 6.53 and 6.99.
Take `CNCCN(C)Cc1nn2c(c1C1CCC(COC)(COC)CC1)CN(C(C)=O)CC2` [Example 55, 1-(3-(4,4-bis(methoxy-methyl)cyclohexyl)-2-((methyl(2-(methylamino)-ethyl)amino)methyl)-6,7-dihydropyrazolo[1,5-a]-pyrazin-5(4H)-yl)ethan-1-one]: the pIC50 in test [1] was 5.95; in test [2], 6.53; in test [3], 7.15.
On to `CNCCN(C)Cc1nn2c(c1C1CCC(COC)(COC)CC1)CN(C(=O)C1CCC(F)(F)C1)CC2` (stereo not drawn) [Example 56, (3-(4,4-bis(methoxymethyl)-cyclohexyl)-2-((methyl(2-(methylamino)ethyl)amino)-methyl)-6,7-dihydropyrazolo-[1,5-a]pyrazin-5(4H)-yl)(3,3-difluorocyclopentyl)-methanone], for which the pIC50 is 6.41 in test [1], 7.08 in test [2] and 7.27 in test [3].
Taken in the same sequence, the figures for `CNCCN(C)Cc1nn2c(c1C1CCC(COC)(COC)CC1)CN(C(=O)C1(C)CCCO1)CC2` (stereo not drawn) [Example 57, (3-(4,4-bis(methoxymethyl)-cyclohexyl)-2-((methyl(2-(methylamino)ethyl)amino)-methyl)-6,7-dihydropyrazolo-[1,5-a]pyrazin-5(4H)-yl)(2-methyltetrahydrofuran-2-yl)-methanone] were 6.57, 6.77 and 7.10.
Taken in the same sequence, the figures for `CNCCN(C)Cc1nn2c(c1C1CCC(COC)(COC)CC1)CN(C(=O)C(C)(C)F)CC2` [Example 59, 1-(3-(4,4-bis(methoxy-methyl)cyclohexyl)-2-((methyl(2-(methylamino)-ethyl)amino)methyl)-6,7-dihydropyrazolo[1,5-a]-pyrazin-5(4H)-yl)-2-fluoro-2-methylpropan-1-one] were 6.75, 6.95 and 7.32.
For `COCC1(COC)CCC(c2c(CN(C)CCN)nn3c2CN(C(=O)C2CC(C(F)(F)F)C2)CC3)CC1` (stereo not drawn) [Example 62, (2-(((2-aminoethyl)(methyl)-amino)methyl)-3-(4,4-bis-(methoxymethyl)cyclohexyl)-6,7-dihydropyrazolo[1,5-a]-pyrazin-5(4H)-yl)(3-(trifluoromethyl)cyclobutyl)-methanone], in that order: 5.86, 7.12 and 7.64.
On to `CNCCN(C)Cc1nn2c(c1C1CCC(COC)(COC)CC1)CN(C(=O)C1(C(C)C)CCC1)CC2` [Example 64, (3-(4,4-bis(methoxymethyl)-cyclohexyl)-2-((methyl(2-(methylamino)ethyl)amino)-methyl)-6,7-dihydropyrazolo-[1,5-a]pyrazin-5(4H)-yl)(1-isopropylcyclobutyl)-methanone], for which the values for the pIC50 in test [1], in test [2] and in test [3] were 5.63, 6.64 and 6.95, respectively.
As to `CCC(C)C(=O)N1CCn2nc(CN(C)CCNC)c(C3CCC(COC)(COC)CC3)c2C1` (stereo not drawn) [Example 65, 1-(3-(4,4-bis(methoxy-methyl)cyclohexyl)-2-((methyl(2-(methylamino)-ethyl)amino)methyl)-6,7-dihydropyrazolo[1,5-a]-pyrazin-5(4H)-yl)-2-methylbutan-1-one], the negative-log IC50 (pIC50) in test [1] is 6.27; in test [2] it was 6.87; in test [3], 7.15.
`CNCCN(C)Cc1nn2c(c1C1CCC(COC)(COC)CC1)CN(C(=O)C1CC(C(F)F)C1)CC2` (stereo not drawn) [Example 66, (3-(4,4-bis(methoxymethyl)-cyclohexyl)-2-((methyl(2-(methylamino)ethyl)amino)-methyl)-6,7-dihydropyrazolo-[1,5-a]pyrazin-5(4H)-yl)(3-(difluoromethyl)cyclobutyl)-methanone]: the negative logarithm of the IC50 (pIC50) in test [1] is 6.02; in test [2] it was 6.82; in test [3], 7.28.

The record behind these values is patent US20230416261A1, “ETHANEDIAMINE-HETEROCYCLE DERIVATIVES AS INHIBITORS OF PROTEIN ARGININE METHYLTRANSFERASES” (Board of Regents, The University of Texas System, priority 2021, published 2023).
